Source: patent US10975059B2, “Small molecule BRD4 modulators for HIV epigenetic regulation” (The Board of Regents of The University of Texas System, priority 2017, dated 2021)

Columns and labels:
BRD4 BD1 domain = BRD4 BD1 domain (Homo sapiens, UniProt O60885); assay: TR-FRET binding assay, BRD4 BD1
BRD4 BD2 = BRD4 BD2 (Homo sapiens, UniProt O60885); assay: TR-FRET binding assay, BRD4 BD2
[1] = target: T1, non-BET bromodomain protein CBP (Homo sapiens, UniProt Q92793); assay: TR-FRET binding assay, CBP
T1 construct: purchased Cayman Chemical
Method: A series of concentrations of the compound from 0.01 nM to 100 μM were added into a 384 well test plate and mixed with other reaction components based on the instructions from vendor followed by incubation 1 h at room temperature. […] The plates were read in time-resolved format by exciting the sample at 340 nm and reading emissions at 620 and 670 nm, using a 100 μs delay and a 500 μs window at a Tecan M1000 pro reader.

[2] = system: non-specific cellular proteins; assay: Binding to a broader panel of non-specific cellular proteins
[3] = system: PMA-induced HIV activation in J-Lat cells (10.6); assay: HIV-suppression model, PMA-stimulated J-Lat cells (GFP, flow cytometry); assay type: cell-based; conditions: 24 hours; for effect on PMA-induced HIV activation (GFP+%): PMA + compound 10 μM
[4] = system: HIV transcription in J-Lat cells; assay: qPCR of HIV RNAs (Gag, 3'-LTR) in J-Lat cells; assay type: cell-based; conditions: for HIV mRNAs (Gag and 3'-LTR RNA levels): PMA-activated J-Lat, 24 hours after treatment
[5] = system: HIV (US-1 strain) in human CD4 T cells; assay type: cell-based; conditions: for HIV infection in activated CD4 T cells (intracellular p24): 0-8 μM, three days after viral exposure
HIV in human PBMCs = assay: qPCR of HIV DNA and Gag RNA in in vitro infected PBMCs; assay type: cell-based; conditions: PHA-activated PBMCs, 4 μM
[6] = system: HIV in unactivated human CD4 T cells; assay: HIV in un-activated (resting) CD4 T cells (intracellular p24); assay type: cell-based; conditions: 2 μM and 4 μM, Day 6
Method: We also evaluated the impact of ZL0580 on HIV in un-activated (resting) CD4 T cells. Normal PBMCs were not stimulated but directly infected with HIV by spinoculation. 24 hours after HIV infection, cells were extensively washed and treated with ZL0580 (2 μM and 4 μM) or not (NC). As expected, compared to activated cells, HIV replication kinetics in un-activated CD4 T cells is slower.

human PBMCs = assay type: cell-based
[7] = system: HIV transcription in PBMC of HIV-infected subjects; assay: Ex vivo HIV Gag RNA in PBMCs of viremic HIV-infected subjects (RV21); assay type: cell-based; conditions: 2 days
[8] = system: HIV particles from RV21 PBMC; assay: HIV particles in culture supernatants, reporter TZM-bl assay; assay type: cell-based; conditions: vs no treatment control
Text: We next assessed assess the HIV-suppressive activity of ZL0580 ex vivo. RV21 is ART naïve, chronic HIV infection established by US MHRP and use of PBMC samples from this cohort in our group has been previously published (25). PBMC from RV21 subjects (n=8) were stimulated with PHA to induce HIV transcriptional activation in the absence (0 Mm) or presence of ZL0580 ([…]).

RV254 PBMCs = assay: Viability of RV254 PBMCs; assay type: cell-based, human; conditions: vs ART alone or NC
[9] = system: HIV in BRD4-KO J-Lat cells; assay type: cell-based
ELL2 = ELL2 protein (WB) and mRNA (Q-PCR) in J-Lat cells; assay type: cell-based; conditions: vs PMA alone, WT J-Lat, 24 hours
Method: (§1) Target protein expression in WT and BRD4-KO J-Lat cells (10.6 full length) were measured by western blotting. […] The cells were harvested, washed and then lysed in NP-40 cell lysis buffer (containing 20 mM Tris-HCl, […] of NaCl, 0.2 mM EDTA, 1% NP40, protease inhibitor cocktail, and 1 mM PMSF) by rotation at RT for 1 hour. Cell lysates were centrifuged at 4° C. and the supernatants were collected, followed by measurement of total protein concentration in the supernatants by using Microplate BCA Protein Assay Kit. 20 μg proteins were separated using SDS-PAGE gel and then transferred to Immuno-Blot PVDF Membrane. The membrane was blocked (5% skimmed milk powder in TBST) and then incubated with individual protein-specific antibodies (CDK9, Cyclin T1, Cyclin T2, ELL2, p-RNA Pol II-CTD (Ser2), BRD2, BRD4, NF-κB, or cellular GAPDH) for overnight at 4° C. After washing three times in TBST, the membrane was incubated with anti-rabbit or anti-mouse IgG-HRP, depending on the primary antibody used. The membrane was incubated in Super Signal West Pico Chemiluminescent Substrate. Molecular weights of target proteins were assessed by comparing with markers.

RNAPII = assay: Western blot of phosphorylated RNAPII (Ser 2 CTD) in J-Lat cells; assay type: cell-based; conditions: vs PMA alone
Method: as §1

CDK9 binding to Tat = assay: Tat Co-IP, CDK9 binding, J-Lat cells; assay type: cell-based; conditions: vs PMA alone, 24 hours
Method: Treated J-Lat cells were harvested, washed and lysed in 1 ml NP-40 cell lysis buffer as described above in western blotting. The lysate was cleared by centrifugation and the supernatant was collected. Protein concentration in collected supernatant was measured (Microplate BCA Protein Assay Kit). Equal amounts of proteins from different treatments were incubated with […] of anti-Tat (Thermo Fisher, Cat. No. MA1-71509) or anti-BRD4 (Thermo Fisher, Cat. No. 730037) antibody or normal mouse IgG (Cell Signaling, Cat. No. 5415) for overnight at 4° C. The immune complexes were precipitated by 50 μl protein G-conjugated magnetic beads (Thermo Fisher, Cat. No. 10003D). Beads were washed 6 times using cold NP-40 cell lysis buffer and then subjected to SDS-PAGE electrophoresis. The membranes were immunoblotted with anti-CDK9 primary antibody, followed by incubation with HRP-conjugated secondary antibody.

CDK9 binding to BRD4 = CDK9 binding to BRD4 (Homo sapiens, UniProt O60885); assay: BRD4 Co-IP, CDK9 binding, J-Lat cells; assay type: cell-based; conditions: vs PMA alone, 24 hours
Tat at HIV 5'-LTR = assay: CHIP-qPCR, Tat recruitment to HIV promoter; assay type: cell-based; conditions: J-Lat, 10 μM, 24 hours
Method: ChIP assay was performed using a ChIP-IT Express Kit (Active Modify, USA) according to the manufacturer's instructions. […] Cells were harvested and washed. Cell pellets were re-suspended in 10 ml PBS buffer and fixed with 37% formaldehyde to cross-link DNA and proteins. The fixation reaction was stopped by adding 1.1 ml of 10× Glycine for 5 min at RT. Cells were centrifuged and the supernatants were removed, followed by re-suspension of cells in ice-cold Lysis Buffer on ice for 30 min. Cells were centrifuged at 5,000 rpm for 10 min to pellet the nuclei. Nuclei pellets were re-suspended in 700 μl shearing buffer plus 3.2 μl of PIC and 3.2 μl of PMSF, and were then sonicated using the determined conditions. Sheared chromatin samples were used to set up ChIP reactions by adding the magnetic beads and 5 μg of anti-Tat (1 mg/ml, Thermo Fisher, MA1-71509) or control mouse IgG (2.5 mg/ml, Cell Signaling, #5415) antibody (overnight rotation at 4° C.). After several times of washing by ChIP buffers 2, the chromatin was reverse cross-linked and treated with proteinase K. The eluted DNA were cleaned up with phenol-chloroform and used in real time-PCR. The results were analyzed by the fold enrichment method with the formula % enrichment=2−(CT IP−CT mock).

BRD4 at HIV 5'-LTR = assay: CHIP-qPCR, BRD4 binding to HIV promoter; assay type: cell-based; conditions: activated and resting J-Lat, vs no compound control
[10] = system: HIV LTR chromatin in J-Lat cells; assay: High-resolution MNase nucleosomal mapping of HIV LTR; assay type: cell-based; conditions: 10 μM 24 hours, then PMA 24 hours, vs NC
J-Lat cells = assay: J-Lat cell viability (Aqua blue, flow cytometry)
[11] = system: BD1 and BD2 of BET proteins (BRD4, BRD2, BRD3, BRDT); assay: TR-FRET binding to BD1 and BD2 of BET proteins
Text: Details are available in the Supplementary Methods.

[12] = system: latent HIV in J-Lat cells (10.6); assay: HIV-activation screening in J-Lat cells (GFP, flow cytometry); assay type: cell-based; conditions: compound alone, 10 μM, 24 hours

T1 sequence (Q92793 1085-1192 limits assumed): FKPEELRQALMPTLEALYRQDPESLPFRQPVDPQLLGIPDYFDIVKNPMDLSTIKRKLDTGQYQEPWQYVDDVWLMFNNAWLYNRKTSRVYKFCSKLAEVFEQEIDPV

SMILES: O=C(Nc1ccc(C(F)(F)F)cc1)Nc1ccc(S(=O)(=O)N2CCCC2C(=O)Nc2ccccc2)cc1 (stereo in doubt) [ZL0580, (R)—N-Phenyl-1-((4-(3-(4-(trifluoromethyl)phenyl)ureido)phenyl)sulfonyl)pyrrolidine-2-carboxamide]
- IC50 (BRD4 BD1 domain): 163 nM
- IC50 (BRD4 BD2): 1070 nM
- IC50 [1]: > 10000 nM
- binding activity to non-specific cellular proteins [2]: no or weak binding activity
- dose dependence of suppression of PMA-induced HIV activation ([3]; PMA + 0, 1, 10, 20 μM): suppresses PMA-induced HIV activation in dose-dependent manner
- effect on PMA-induced HIV activation (GFP+%) [3]: suppresses PMA-induced HIV activation
- HIV mRNAs (Gag and 3'-LTR RNA levels) [4]: reduces both Gag and 3′-LTR RNA levels
- HIV reactivation by LRAs after pre-treatment ([4]; resting J-Lat, single dose 10 μM for 3 days, then SAHA or Prostratin): renders J-Lat cells more resistant to HIV reactivation by SAHA or Prostratin
- kinetics of HIV transcription (3'-LTR RNA) ([4]; single treatment 10 μM, PMA-activated or resting, Day 2, 7, 14): suppresses both PMA-stimulated and basal HIV transcription through Day 14 after treatment
- HIV infection in activated CD4 T cells (intracellular p24) [5]: suppress HIV in activated human CD4 T cells in a dose-dependent manner
- productive HIV infection in CD4 T cells ([5]; single treatment 8 μM): almost complete loss of productive HIV infection in CD4 T cells
- HIV transcription (Gag RNA) in PBMCs (HIV in human PBMCs): reduced HIV transcription in PBMCs
- cell-associated HIV DNA (HIV in human PBMCs): did not significantly alter HIV DNA levels
- HIV in unactivated CD4 T cells (p24+%) [6]: dose-dependently suppresses HIV in unactivated CD4 T cells
- concentrations without significant PBMC death (human PBMCs; 0-80 μM): below 40 μM
- PBMC viability (human PBMCs; 8 μM vs NC, PHA-activated, 3 days): comparable between NC and ZL0580 treatment
- HIV Gag mRNA ex vivo ([7]; PHA-stimulated RV21 PBMC (n=8)): suppress HIV transcription ex vivo in all eight PBMC samples
- reduction of RNA levels in some subjects ([7]; PHA-stimulated RV21 PBMC): greater than 10 fold
- production of HIV particles in cell culture supernatants [8]: significantly reduced
- toxicity to RV254 PBMCs (RV254 PBMCs): did not cause significant toxicity to these cells
- Gag and 3'-LTR RNA expression, vector control cells [9]: substantially inhibit Gag and 3′-LTR RNA expression
- HIV suppression (GFP) in BRD4-KO cells [9]: failed to induce HIV suppression in BRD4-KO cells
- HIV suppression in BRD4-KO cells with exogenous BRD4 expression [9]: restored to large extent the ability of ZL0580 to suppress HIV in these cells
- inhibition of Gag and 3'-LTR RNA, BRD4-KO cells [9]: largely abrogated in the BRD4-KO cells
- ELL2 protein (ELL2): substantially reduced ELL2 protein
- RNAPII activation (phosphorylation of CTD Ser2) (RNAPII): reduced RNAII activation
- CDK9 binding to Tat (CDK9 binding to Tat): reduced CDK9 binding to Tat
- CDK9 binding to BRD4 (CDK9 binding to BRD4): enhanced CDK9 binding to BRD4
- recruitment of Tat to HIV promoter (Tat at HIV 5'-LTR): reduced Tat recruitment to HIV promoter
- BRD4 binding to HIV promoter (BRD4 at HIV 5'-LTR): promoted BRD4 binding to HIV promoter
- nucleosomal DNA protection in HIV LTR [10]: enhanced nucleosomal DNA protection in the majority of amplicon regions (6-20)
- concentrations without significant cell death (J-Lat cells; 0-80 μM, 1 & 3 days): below 40 μM
- cell death vs NC (J-Lat cells; 10 μM, Day 2, 7 and 14, PMA-activated and un-stimulated): did not cause significant cell death

SMILES: Cc1sc2c(c1C)C(c1ccc(Cl)cc1)=N[C@@H](CC(=O)OC(C)(C)C)c1nnc(C)n1-2 [JQ1, reference compound]
- binding to BD1 and BD2 of BET proteins [11]: non-selectively binds to both BD1 and BD2 all four BET proteins
- activation of latent HIV (GFP expression) [12]: activates HIV
- effect on PMA-induced HIV activation (GFP+%) [3]: synergistically enhances PMA-stimulated HIV activation
- HIV mRNAs (Gag and 3'-LTR RNA levels) [4]: enhances their levels
- ELL2 protein (ELL2): increased its level
- RNAPII activation (phosphorylation of CTD Ser2) (RNAPII): potentiated its activation
- CDK9 binding to Tat (CDK9 binding to Tat): enhanced CDK9 binding to Tat
- recruitment of Tat to HIV promoter (Tat at HIV 5'-LTR): enhanced binding of Tat to HIV promoter
- BRD4 binding to HIV promoter (BRD4 at HIV 5'-LTR): reduced this binding
- nucleosomal DNA protection in HIV LTR [10]: reduced nucleosomal DNA protection in several amplicon regions

SMILES: Cc1cc(N=Nc2ccc(S(=O)(=O)NC3CCCC3)cc2)c(N)cc1O [ZL0454]
- activation of latent HIV (GFP expression) [12]: modestly activate HIV
- effect on PMA-induced HIV activation (GFP+%) [3]: synergistically enhanced PMA-induced HIV activation
- HIV infection in activated CD4 T cells (intracellular p24) [5]: did not suppress HIV in CD4 T cells

SMILES: COC(=O)[C@@H]1CCCN1S(=O)(=O)c1ccc(NC(=O)Nc2cccc(C(F)(F)F)c2)cc1 [ZL0506]
- effect on PMA-induced HIV activation (GFP+%) [3]: modestly suppress HIV
